# Experimental data from patent publication US11865125B2, “APKC inhibitors and methods of treating a neurodegenerative disease or disorder” (UNIVERSITY OF SOUTH FLORIDA, priority 2016, dated 2024).
# “Also recorded” adds a separate entry of the source.
# What was measured:
# Aβ1-40/42 = Aβ1-40/42 levels in LA1-5s neuroblastoma cells; type: cell-based, human; conditions: LA1-5s cells
# Protocol: (§1) Relative bar values in panel a are mean±SEM of 6 determinations. Asterisks: *, P<0.05; **, P<0.01; ***, P<0.001 (ANOVA). Values in panel b are means of 2-4 determinations.
# Shown here are Mean±SEM (N=4) values relative to the mean initial basal or insulin-stimulated level of indicated immunoreactive protein/peptide. Asterisks: *, P<0.05; **, P<0.01; ***, P<0.001 (ANOVA).
# (§2) Western Analyses. As described, Western analyses were conducted with rabbit antisera or mouse monoclonal antibodies (mMab), using: anti-aPKC (Santa Cruz Biotechnologies, Santa Cruz, CA); anti-phospho-threonine-560/555-PKC-ζ/λ/ι (Invitrogen, Carlsbad, CA); anti-p-serine-256-FoxO1 and anti-FoxO1 (Abnova, Walnut, CA); anti-Akt (mMab), anti-phospho-serine-473-Akt, anti-phospho-serine-9-GSK3P anti-GSK313, anti-phospho-serine-253-FoxO3a, anti-FoxO3a, anti-phospho-serine-256-FoxO1, anti-phospho-serine-193-FoxO4; anti-FoxO1, anti-phospho-serine-2448-mTOR, anti-mTOR, anti-β-amyloid (anti-5-10 kDa-Aβ1-40/42) and anti-amyloid precursor protein (anti-120 kDa-APP) (Cell Signaling Technologies, Danvers, MA); and anti-phospho-serine-202-tau, anti-phospho-threonine-231-tau (Gene Tex, Irvine, CA). Samples from experimental groups were compared on the same blots, and routinely checked with loading controls. Note that: insulin-sensitive 70 kDa aPKC is largely PKC-ζ in mouse brain and orthologous PKC-ι (98% aa homology) in monkey and other primate brains; brain PKC-ζ exists largely as a 50 kDa moiety that, lacking a regulatory domain, is constitutively-active and unresponsive to insulin.
# 70 kDa PKC-λ/ι = target: T1, 70 kDa PKC-λ/ι (Mus musculus, UniProt Q62074); experiment: brain aPKC (PKC-λ/ι) phosphorylation/activity in mice; type: in vivo
# T1 construct: insulin-sensitive 70 kDa PKC-λ/ι in brains of Het-MλKO mice; from tissue; host or cells: mouse brain homogenate
# T1 sequence (Q62074 1-595): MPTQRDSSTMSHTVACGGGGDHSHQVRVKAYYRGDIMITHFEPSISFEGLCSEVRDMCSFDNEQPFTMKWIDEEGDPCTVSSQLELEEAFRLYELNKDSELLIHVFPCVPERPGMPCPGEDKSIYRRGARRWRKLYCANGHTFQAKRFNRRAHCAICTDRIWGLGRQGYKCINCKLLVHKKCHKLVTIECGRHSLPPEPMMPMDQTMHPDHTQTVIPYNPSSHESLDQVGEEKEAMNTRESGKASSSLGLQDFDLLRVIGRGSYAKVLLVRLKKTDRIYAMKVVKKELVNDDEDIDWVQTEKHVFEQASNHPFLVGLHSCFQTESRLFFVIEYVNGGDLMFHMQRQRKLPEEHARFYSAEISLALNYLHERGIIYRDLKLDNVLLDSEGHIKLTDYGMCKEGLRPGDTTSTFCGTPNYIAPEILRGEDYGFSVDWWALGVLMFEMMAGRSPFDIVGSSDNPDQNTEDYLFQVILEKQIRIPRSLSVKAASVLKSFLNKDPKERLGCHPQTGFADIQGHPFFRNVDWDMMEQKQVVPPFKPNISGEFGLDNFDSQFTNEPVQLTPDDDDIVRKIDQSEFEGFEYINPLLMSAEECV
# From the text: Mouse Studies. Brain samples were obtained from normal and insulin-resistant mice and monkeys used previously, and includes mice originally used in studies of insulin signaling and resistance in liver: (a) 4-6 month old C57Bl/6 mice used in studies of high-fat-feeding [USF Vivarium] [6]; 4-6 month-old male C57Bl/6 ob/ob and lean ob+ mice (Jackson Labs, Bar Harbor, Maine); and (c) 10-12 month-old C57Bl/6 Het-MλKO mice [USF Vivarium] [8]. […] Where indicated normal mice were given a single SC injection of saline or saline containing 1.5 mg/kg ICAPP to follow time-related alterations in brain signaling factors. Where indicated, mice were treated intraperitoneally (IP) with insulin (1 U/kg body weight) or vehicle 15-min before euthanization by administration of Xylazine/Ketamine, followed by whole body perfusion with phosphate-buffered saline and rapid removal of brain and other tissues.
# Tissue Preparations. As described, mouse brains were hemisected sagittally, and one-half was frozen in liquid N2, stored at −80° C., and samples thereof were homogenized in buffer containing 0.25M sucrose, 20 mM Tris/HCl (pH, 7.5), 2 mmol/l EGTA, 2 mM EDTA, 1 mM phenlysulfonoylfluoride (PMSF), 20 μg/ml leupeptin, 10 μg/ml aprotinin, 2 mM Na4P2O7, 2 mM Na3VO4, 2 mM NaF, and 1 μM microcystin, and then supplemented with 1% TritonX-100, 0.6% Nonidet and 150 mM NaCl.
# as §2
# Where indicated, mice were randomly treated with insulin (1 unit/kg/bw i.p.) 15 min before being euthanized by administration of xylazine/ketamine, followed by whole-body perfusion with PBS and rapid removal of brain and other tissues.
# [1] = system: Akt substrates, GSK3β and mTOR; experiment: phosphorylation of Akt substrates in LA1-5s neuroblastoma cells; type: cell-based, human; conditions: LA1-5s cells, 200 nM insulin, data not shown
# Protocol: as §1, §2
# aPKC = target: T2, aPKC (Mus musculus, UniProt Q62074); conditions: previously seen, stated as similar; read-out: IC50, inhibition of aPKC activity in mouse adipocytes; cited from earlier work
# T2 construct: previously seen in isolated human hepatocytes, mouse adipocytes and recombinant PKC-λ/ι [8,16]; endogenous in cells; host or cells: isolated mouse adipocytes
# T2 sequence (Q62074 2-595 limits assumed): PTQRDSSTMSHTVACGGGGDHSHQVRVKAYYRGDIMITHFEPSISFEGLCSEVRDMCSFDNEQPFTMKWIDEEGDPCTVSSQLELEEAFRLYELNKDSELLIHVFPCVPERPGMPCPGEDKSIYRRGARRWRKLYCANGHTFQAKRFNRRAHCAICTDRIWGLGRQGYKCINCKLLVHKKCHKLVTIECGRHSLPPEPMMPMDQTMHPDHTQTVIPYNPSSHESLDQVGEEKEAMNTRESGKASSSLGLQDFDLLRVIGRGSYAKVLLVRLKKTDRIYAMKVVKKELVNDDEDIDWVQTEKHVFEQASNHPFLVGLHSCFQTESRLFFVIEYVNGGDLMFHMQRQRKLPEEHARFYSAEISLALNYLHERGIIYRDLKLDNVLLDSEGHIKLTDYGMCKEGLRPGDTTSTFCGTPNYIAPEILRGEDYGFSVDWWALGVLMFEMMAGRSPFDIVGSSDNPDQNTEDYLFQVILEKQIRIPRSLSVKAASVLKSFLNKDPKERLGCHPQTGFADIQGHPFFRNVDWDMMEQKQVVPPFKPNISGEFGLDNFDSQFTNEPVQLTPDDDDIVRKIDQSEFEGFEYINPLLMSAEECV
smiles,measurement,setting,value
NC(=O)c1ncn([C@@H]2C[C@H](COP(=O)(O)O)[C@@H](O)[C@H]2O)c1N [ICAPP],effect on metformin-induced increase in Aβ1-40/42,Aβ1-40/42,dose-dependently inhibited
same,effect on insulin-stimulated Aβ1-40/42 levels,Aβ1-40/42; 200 nM insulin,dose-dependent decreases
same,resting/basal brain aPKC (PKC-λ/ι) activity,"70 kDa PKC-λ/ι; Het-MλKO mice, s.c. once daily for 8 days (ICAPP 0.4 mg/kg, ATM 60 mg/kg)","diminished; also recorded: reductions of resting/basal activities of brain Akt and aPKC, comparable to those seen with ATM treatment"
same,acute insulin activation of brain aPKC (PKC-λ/ι),"70 kDa PKC-λ/ι; Het-MλKO mice, s.c. once daily for 8 days (ICAPP 0.4 mg/kg, ATM 60 mg/kg), insulin 1 U/kg i.p. 15 min",blocked the ability of insulin to activate PKC-λ/ι; also recorded: abrogated
same,insulin-dependent brain PKC-λ/ι (aPKC) activity,"70 kDa PKC-λ/ι; normal mice, single s.c. dose of ICAPP 1.5 mg/kg, insulin 1 U/kg i.p. 15 min before killing","time-related, well-correlated decreases; also recorded: blocked acute effects of insulin"
same,effect on insulin-stimulated phosphorylation of Akt substrates,[1],without altering
same,IC50,aPKC,1 to 10 nM
